Source: patent US20080194491A1, “Methods of Diagnosing, Preventing, and Treating Early Onset of Pulmonary Hypertension” (priority 2002, published 2008)

Experiments:
mammary epithelial cells = settings: absence of extracellular matrix; cited from earlier work
lung apoptosis after MCT = assay: Early caspase inhibition after MCT: lung apoptosis by TUNEL assay; type: in vivo, Rats
Experimental: The methods set out in Example 3 were employed. In this set of experiments, the inventors tried to establish the effect of apoptosis inhibitors on the early development of the apoptotic pathways. They blocked the caspase activity at a much earlier time point (18 hours post MCT injection and another injection 24 hours after that) using two classes of caspase inhibitors, namely Z-Asp (2.5 mg/Kg) and Z-VAD (1.5 mg/Kg; see FIG. 10 for details). Rats were sacrificed 24, 48 and 72 hours post last dose of inhibitors/DMSO injection and lungs were collected for histology and activity assay. Apoptosis were measured by both TUNEL and caspase activity assays, as previously described.

motoneurons = settings: in vitro and in vivo; cited from earlier work
T-lymphocyte cell line = settings: cited from earlier work
[1] = system: Human pulmonary artery epithelial cells (HPAEC); assay: HPAEC apoptosis induced by serum withdrawal (flow cytometry Annexin V, TUNEL); type: cell-based; settings: pretreatment 100-200 ng/ml for 2 hours; flow cytometry and TUNEL assay
Experimental: (§1) The inventors investigated the effect of BMPR2 signaling on pulmonary endothelial cell proliferation and survival. Human pulmonary artery […] cells (HPAEC) were grown in EBM-2 medium supplemented with 2% FBS and growth factors (Clonetics). Apoptosis was induced either by serum withdrawal (see FIG. 17) or exposure of cells to TNFα. […] Apoptosis was evaluated by three independent methods: 1) flow cytometry using Annexin V, a Ca2+ dependent phospholipid-binding protein with affinity for phosphatidylserine (PS; translocation of PS from the inner leaflet of plasma membrane to the outer layer occurs during the early stage of apoptosis), 2) TUNEL assay and, 3) caspase activity assay.

[2] = system: Human pulmonary artery cells (HPAEC); assay: HPAEC apoptosis induced by TNF (caspase activity assay); type: cell-based; settings: pretreatment 100-200 ng/ml for 2 hours, TNF 10-20 ng/ml
Experimental: as §1

CC(C)(C)OC(=O)N[C@@H](CC(=O)OCc1ccccc1)C(=O)CCl [Boc-D-(benzyl) chloromethylketone]
cell death of mammary epithelial cells (mammary epithelial cells): prevented

Z-VAD
inhibition of apoptosis (lung apoptosis after MCT; 48 or 72 hours after the last treatment): less potent | inhibition of apoptosis (lung apoptosis after MCT; 24 hours after the last treatment): most effective

acetyl-YVAD-chloromethylketone
death of motoneurons (motoneurons): blocked

acetyl-YVAD-aldehyde
death of motoneurons (motoneurons): blocked

acetyl-DEVD-aldehyde
anti-Fas induced apoptosis (T-lymphocyte cell line): inhibited

B1: BMP7: bone morphogenetic protein (protein, UniProt P18075 293-431, looked up)
Bone morphogenetic protein 7: STGSKQRSQNRSKTPKNQEALRMANVAENSSSDQRQACKKHELYVSFRDLGWQDWIIAPEGYAAYYCEGECAFPLNSYMNATNHAIVQTLVHFINPETVPKPCCAPTQLNAISVLYFDDSSNVILKKYRNMVVRACGCH
apoptosis induced by serum withdrawal [1]: protected the cells from apoptosis | apoptosis induced by TNF treatment [2]: protect the cells from apoptosis
